# Experimental data reported in patent US8716242B2, “β-hairpin peptidomimetics” (priority 2009, dated 2014).
# Numbered stars: 1 amine (or outer) side, 2 acyl side, 3 side chain; on linkers, the order of the positions; unused ones are H or OH. Bridge positions count the residues as written; N and C are the ends. Square brackets hold non-standard residues; d marks the D form. Side chains are listed from the residue outwards. Peptide text beside a SMILES is read from it. * marks the point of attachment. γGlu = O=C(O)[C@H](CCC(=O)[*:2])N[*:1]; Palmitoyl = CCCCCCCCCCCCCCCC(=O)*; Lauroyl = CCCCCCCCCCCC(=O)*; Dab = NCC[C@H](N)C(=O)O
# Key:
# [1] = system: human red blood cells (hRBC); assay: Hemolysis of human red blood cells; assay type: cell-based; settings: 20% hRBC, 1 h, 37° C.
# Procedure, shortened: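 Washed fresh human erythrocytes (20% v/v, ~0.9×10^9 cells/mL final) incubated with compound at 100 μM for 1 h at 37 °C with shaking. Supernatant OD540 read; % hemolysis expressed relative to 2.5% Triton X-100 lysis (100%), with PBS/0.001% acetic acid as 0%.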
# [2] = in vivo; parameters: species or system male CD-1 mice; settings: for AUC0-∞ dcor. / Cmax dcor.: mouse
# Experimental: 2.7. Pharmacokinetic Study (PK)
# Pharmacokinetic study after intravenous (i.v.) and subcutaneous (s.c.) administration was performed for the compounds of Ex. 17, Ex. 20, Ex. 25, Ex. 26, Ex. 28, and Ex. 29. […] The compounds of Ex. 17, Ex. 25, Ex. 26, Ex. 28, and Ex. 29 were administered i.v. and s.c. as a cassette whereas for the compound of Ex. 20a single i.v. and s.c. administration was accomplished.
# 30 grams (±20%) male CD-1 mice obtained from Janvier, France, were used in the study testing the cassette compounds. The vehicle, phosphate buffered saline containing 5% DMSO, was added to give a final concentration of 0.5 mg/mL of the compounds (i.v. route and s.c. route). The volume was 2 mL/kg i.v. and 10 mL/kg s.c. and the cassette compounds were injected to give a final intravenous dose of 1 mg/kg and an subcutaneous dose of 5 mg/kg. Approximately 500 μL of blood were removed from the opened heart at predetermined time intervals (5, 15, 30 min and 1, 2, 4, 8 and 12 hours for the i.v. study and 5, 15, 30 min and 1, 2, 4, 8, 12 and 24 hours for the s.c. study) and added to heparinized tubes. Plasma was removed from pelleted cells upon centrifugation and frozen at −80° C. prior to HPLC-MS analysis. For the compound of Ex. 20 30 grams (±20%) male CD-1 mice obtained from Charles River Laboratories Deutschland GmbH were used. The vehicle, phosphate buffered saline, was added to give a final concentration of 0.2 mg/mL of the compound (i.v. route) and 1 mg/mL (s.c. route). The volume was 5 mL/kg i.v. and s.c. and the compound was injected to give a final intravenous dose of 1 mg/kg and an subcutaneous dose of 5 mg/kg. Approximately 300-400 μL of blood was removed under light isoflurane anesthesia by cardiac puncture at predetermined time intervals (5, 15, 30 min and 1, 2, 3, 4, 6, 12 hours for the i.v. study and 15, min and 1, 2, 4, 6, 8, 12 and 24 hours for the s.c. study) and added to heparinized tubes. Plasma was removed from pelleted cells upon centrifugation and frozen at −80° C. prior to HPLC-MS analysis.
# Preparation of the Plasma Calibration Samples
# “Blank” mouse plasma from untreated animals was used. Aliquots of plasma of 0.2 mL each were spiked with 50 ng of propranolol (Internal Standard, IS), (sample preparation by solid phase extraction on OASIS® HLB cartridges [Waters]) and with known amounts of Ex. 20 in order to obtain 9 plasma calibration samples in the range 10-5000 nM. The OASIS® HLB cartridges were conditioned with 1 mL of methanol and then with 1 mL of 1% NH3 in water. Samples were then diluted with 700 μL of 1% NH3 in water and loaded. The plate was washed with 1 mL of methanol/1% NH3 in water 5/95 (v/v). Elution was performed using 1 mL of 0.1% TFA in methanol.
# The plate containing eluates was introduced into the concentrator system and taken to dryness. The residues were dissolved in 100 μL of formic acid 0.1%/acetonitrile, 95/5 (v/v) and analysed in the HPLC/MS on a reverse phase analytical column (Jupiter C18, 50×2.0 mm, 5 μm, Phenomenex), using gradient elution (mobile phases A: 0.1% formic acid in water, B: acetonitrile; from 5% B to 100% B in 2 min.).
# Preparation of Plasma Samples
# Samples coming from animal treatments were pooled in order to obtain an appropriate volume for the extraction. If the total volume obtained was less than 0.2 mL the appropriate amount of “blank” mouse plasma was added in order to keep the matrix identical to the calibration curve. Samples were than spiked with IS and processed as described for the calibration curve.
# Pharmacokinetic Evaluation
# In order to perform PK analysis pooled plasma data (n=3 mice) was used. PK parameters were calculated by WinNonLin™ software version 5.2.1 (Pharsight—A Certara™ Company, Mountain View, Calif. 94041 USA) using non-compartmental analysis with a linear up/log down trapezoidal calculation method. For the terminal elimination phase at least 3 time points and a correlation coefficient greater than 0.85 was used. […]
Structure (SMILES),Hemolysis at 100 μM [1] [%],"bioavailability ([2]; male, CD-1, mouse) [%]","AUC(0-inf) ([2]; male, CD-1, mouse, iv, 1 mg/kg) [ng·h/mL]","Cmax ([2]; male, CD-1, mouse, iv, 1 mg/kg) [ng/mL]","Tmax ([2]; male, CD-1, mouse, iv, 1 mg/kg) [h]","half-life ([2]; male, CD-1, mouse, iv, 1 mg/kg) [h]","level at 0.083 h ([2]; male, CD-1, mouse, iv, 1 mg/kg) [ng/mL]","level at 0.25 h ([2]; male, CD-1, mouse, iv, 1 mg/kg) [ng/mL]","level at 0.5 h ([2]; male, CD-1, mouse, iv, 1 mg/kg) [ng/mL]","level at 1 h ([2]; male, CD-1, mouse, iv, 1 mg/kg) [ng/mL]","level at 2 h ([2]; male, CD-1, mouse, iv, 1 mg/kg) [ng/mL]","level at 4 h ([2]; male, CD-1, mouse, iv, 1 mg/kg) [ng/mL]","AUC(0-inf) ([2]; male, CD-1, mouse, sc, 5 mg/kg) [ng·h/mL]","Cmax ([2]; male, CD-1, mouse, sc, 5 mg/kg) [ng/mL]","Tmax ([2]; male, CD-1, mouse, sc, 5 mg/kg) [h]","half-life ([2]; male, CD-1, mouse, sc, 5 mg/kg) [h]","level at 0.5 h ([2]; male, CD-1, mouse, sc, 5 mg/kg) [ng/mL]","level at 1 h ([2]; male, CD-1, mouse, sc, 5 mg/kg) [ng/mL]","level at 2 h ([2]; male, CD-1, mouse, sc, 5 mg/kg) [ng/mL]","level at 4 h ([2]; male, CD-1, mouse, sc, 5 mg/kg) [ng/mL]",other results
CCCCCCCCCCCC(=O)NCCCC[C@@H]1NC(=O)[C@H](Cc2ccc(O)cc2)NC(=O)[C@@H]2CSSC[C@H](NC(=O)[C@H](C)NC(=O)[C@H](Cc3c[nH]cn3)NC(=O)[C@H](Cc3ccc(O)cc3)NC(=O)[C@@H]3CCCN3C(=O)[C@H]3CCCN3C(=O)[C@H](CCCCN)NC1=O)C(=O)N[C@@H](CCCNC(=N)N)C(=O)N[C@@H](C)C(=O)N1CCC[C@@H]1C(=O)N[C@@H](CCN)C(=O)N[C@@H](CCCNC(=N)N)C(=O)N[C@@H](Cc1ccc(O)cc1)C(=O)N2 [Ex. 17] (cyclo(YHACRA[dP][Dab]RYCYK(Lauroyl)K[dP]P); disulfide 4-11),4.3,114,2950,2640,0.1,2,2640,2030,1560,1290,178,141,16800,1750,2,4.3,450,874,1750,1410,"level at 8 h ([2]; male, CD-1, mouse, iv, 1 mg/kg): 15 ng/mL; level at 12 h ([2]; male, CD-1, mouse, iv, 1 mg/kg): 8 ng/mL; level at 0.25 h ([2]; male, CD-1, mouse, sc, 5 mg/kg): 140 ng/mL; level at 8 h ([2]; male, CD-1, mouse, sc, 5 mg/kg): 1240 ng/mL; level at 12 h ([2]; male, CD-1, mouse, sc, 5 mg/kg): 567 ng/mL; level at 24 h ([2]; male, CD-1, mouse, sc, 5 mg/kg): 65 ng/mL; AUC0-∞ dcor. ([2]; iv, 1 mg/kg): 2950.8 kg·ng·h/mg/mL; Cmax dcor. ([2]; iv, 1 mg/kg): 2640.0 kg·ng/mg/mL; AUC0-∞ dcor. ([2]; sc, 5 mg/kg): 3357.9 kg·ng·h/mg/mL; Cmax dcor. ([2]; sc, 5 mg/kg): 350.6 kg·ng/mg/mL"
CCCCCCCCCCCCCCCC(=O)NCCCC[C@@H]1NC(=O)[C@H](Cc2ccc(O)cc2)NC(=O)[C@@H]2CSSC[C@H](NC(=O)[C@H](Cc3ccc(O)cc3)NC(=O)[C@H](Cc3c[nH]cn3)NC(=O)[C@H](Cc3ccc(O)cc3)NC(=O)[C@@H]3CCCN3C(=O)[C@H]3CCCN3C(=O)[C@H](CCCCN)NC1=O)C(=O)N[C@@H](CO)C(=O)N[C@@H](C)C(=O)N1CCC[C@@H]1C(=O)N[C@@H](CCN)C(=O)N[C@@H](CCCNC(=N)N)C(=O)N[C@@H](Cc1ccc(O)cc1)C(=O)N2 [Ex. 20] (cyclo(YHYCSA[dP][Dab]RYCYK(Palmitoyl)K[dP]P); disulfide 4-11),9.1,139,5500,2210,0.5,2,777,1520,2210,1380,992,486,38200,3040,12,2.9,70,342,868,1700,"level at 3 h ([2]; male, CD-1, mouse, iv, 1 mg/kg): 638 ng/mL; level at 6 h ([2]; male, CD-1, mouse, iv, 1 mg/kg): 234 ng/mL; level at 12 h ([2]; male, CD-1, mouse, iv, 1 mg/kg): 13 ng/mL; level at 6 h ([2]; male, CD-1, mouse, sc, 5 mg/kg): 2800 ng/mL; level at 8 h ([2]; male, CD-1, mouse, sc, 5 mg/kg): 2860 ng/mL; level at 12 h ([2]; male, CD-1, mouse, sc, 5 mg/kg): 3040 ng/mL; level at 24 h ([2]; male, CD-1, mouse, sc, 5 mg/kg): 179 ng/mL; AUC0-∞ dcor. ([2]; iv, 1 mg/kg): 5504.8 kg·ng·h/mg/mL; Cmax dcor. ([2]; iv, 1 mg/kg): 2210.0 kg·ng/mg/mL; AUC0-∞ dcor. ([2]; sc, 5 mg/kg): 7630.8 kg·ng·h/mg/mL; Cmax dcor. ([2]; sc, 5 mg/kg): 608.7 kg·ng/mg/mL"
CCCCCCCCCCCC(=O)N[C@@H](CCC(=O)NCCCC[C@@H]1NC(=O)[C@H](Cc2ccc(O)cc2)NC(=O)[C@@H]2CSSC[C@H](NC(=O)[C@H](Cc3ccc(O)cc3)NC(=O)[C@H](Cc3c[nH]cn3)NC(=O)[C@H](Cc3ccc(O)cc3)NC(=O)[C@@H]3CCCN3C(=O)[C@H]3CCCN3C(=O)[C@H](CCCCN)NC1=O)C(=O)N[C@@H](CO)C(=O)N[C@@H](C)C(=O)N1CCC[C@@H]1C(=O)N[C@@H](CCN)C(=O)N[C@@H](CCCNC(=N)N)C(=O)N[C@@H](Cc1ccc(O)cc1)C(=O)N2)C(=O)O [Ex. 25] (cyclo(YHYCSA[dP][Dab]RYCYK([γGlu-Lauroyl])K[dP]P); disulfide 4-11),1.0,142,3480,2970,0.1,2.5,2970,2190,1990,1600,160,180,24700,2190,2,4.7,205,517,2190,1640,"level at 8 h ([2]; male, CD-1, mouse, iv, 1 mg/kg): 18 ng/mL; level at 12 h ([2]; male, CD-1, mouse, iv, 1 mg/kg): 16 ng/mL; level at 0.25 h ([2]; male, CD-1, mouse, sc, 5 mg/kg): 44 ng/mL; level at 8 h ([2]; male, CD-1, mouse, sc, 5 mg/kg): 1890 ng/mL; level at 12 h ([2]; male, CD-1, mouse, sc, 5 mg/kg): 1210 ng/mL; level at 24 h ([2]; male, CD-1, mouse, sc, 5 mg/kg): 108 ng/mL; AUC0-∞ dcor. ([2]; iv, 1 mg/kg): 3480.0 kg·ng·h/mg/mL; Cmax dcor. ([2]; iv, 1 mg/kg): 2970.0 kg·ng/mg/mL; AUC0-∞ dcor. ([2]; sc, 5 mg/kg): 4944.7 kg·ng·h/mg/mL; Cmax dcor. ([2]; sc, 5 mg/kg): 437.4 kg·ng/mg/mL"
CCCCCCCCCCCC(=O)N[C@@H](CCC(=O)NCCCC[C@@H]1NC(=O)[C@H](Cc2ccc(O)cc2)NC(=O)[C@@H]2CSSC[C@H](NC(=O)[C@H](C)NC(=O)[C@H](Cc3c[nH]cn3)NC(=O)[C@H](Cc3ccc(O)cc3)NC(=O)[C@@H]3CCCN3C(=O)[C@H]3CCCN3C(=O)[C@H](CCCCN)NC1=O)C(=O)N[C@@H](CCCNC(=N)N)C(=O)N[C@@H](C)C(=O)N1CCC[C@@H]1C(=O)N[C@@H](CCN)C(=O)N[C@@H](CCCNC(=N)N)C(=O)N[C@@H](Cc1ccc(O)cc1)C(=O)N2)C(=O)O [Ex. 26] (cyclo(YHACRA[dP][Dab]RYCYK([γGlu-Lauroyl])K[dP]P); disulfide 4-11),1.2,142,3400,3470,0.1,1.3,3470,2530,1980,1540,219,98,24000,3990,2,2.9,779,1750,3990,2530,"level at 8 h ([2]; male, CD-1, mouse, iv, 1 mg/kg): 10 ng/mL; level at 0.25 h ([2]; male, CD-1, mouse, sc, 5 mg/kg): 221 ng/mL; level at 8 h ([2]; male, CD-1, mouse, sc, 5 mg/kg): 1600 ng/mL; level at 12 h ([2]; male, CD-1, mouse, sc, 5 mg/kg): 524 ng/mL; level at 24 h ([2]; male, CD-1, mouse, sc, 5 mg/kg): 23 ng/mL; AUC0-∞ dcor. ([2]; iv, 1 mg/kg): 3395.6 kg·ng·h/mg/mL; Cmax dcor. ([2]; iv, 1 mg/kg): 3467.0 kg·ng/mg/mL; AUC0-∞ dcor. ([2]; sc, 5 mg/kg): 4806.6 kg·ng·h/mg/mL; Cmax dcor. ([2]; sc, 5 mg/kg): 797.4 kg·ng/mg/mL"
